From ChEMBL document CHEMBL1687747, “Effect of mild and moderate liver disease on the pharmacokinetics of isavuconazole after intravenous and oral administration of a single dose of the prodrug BAL8557” (Antimicrob Agents Chemother, 2009)

Key:
Settings in all cases: in vivo
Homo sapiens [1] = test: Volume of distribution at steady state in of human with moderate liver impairment assessed as isavuconazole level at 180.5 mg, po administered as single dose over 2 hrs following overnight fasting by high-pressure liquid chromatography coupled with tandem mass spectrometry; assay type: ADME, organism-based
Homo sapiens [2] = test: Tmax in healthy human plasma assessed as isavuconazole level at 180.5 mg, po administered as single dose over 2 hrs following overnight fasting by high-pressure liquid chromatography coupled with tandem mass spectrometry; assay type: ADME, organism-based
Homo sapiens [3] = test: AUC (0 to infinity) in healthy human plasma assessed as isavuconazole level at 180.5 mg, iv administered as single dose over 2 hrs following overnight fasting by high-pressure liquid chromatography coupled with tandem mass spectrometry; assay type: ADME, organism-based; parameters: dose 180.5 mg, time infinity, route intravenous
Homo sapiens [4] = test: AUC (0 to t) in human with moderate liver impairment at 180.5 mg, iv administered as single dose over 2 hrs following overnight fasting by high-pressure liquid chromatography coupled with tandem mass spectrometry; assay type: ADME, organism-based; parameters: dose 180.5 mg, time < 2 hr, route intravenous
Homo sapiens [5] = test: AUC (0 to t) in human with mild liver impairment assessed as metabolite BAL8728 level at 180.5 mg, iv administered as single dose over 2 hrs following overnight fasting by high-pressure liquid chromatography coupled with tandem mass spectrometry; assay type: ADME, organism-based; parameters: dose 180.5 mg, time < 2 hr, route intravenous
Homo sapiens [6] = test: AUC (0 to infinity) in plasma of human with moderate liver impairment assessed as isavuconazole level at 180.5 mg, iv administered as single dose over 2 hrs following overnight fasting by high-pressure liquid chromatography coupled with tandem mass spectrometry; assay type: ADME, organism-based; parameters: dose 180.5 mg, route intravenous, time infinity
Homo sapiens [7] = test: Systemic clearance in plasma of human with moderate liver impairment assessed as isavuconazole level at 180.5 mg, iv administered as single dose over 2 hrs following overnight fasting by high-pressure liquid chromatography coupled with tandem mass spectrometry; assay type: ADME, organism-based
Homo sapiens [8] = test: Toxicity in of human with mild liver impairment at 180.5 mg, iv administered as single dose over 2 hrs following overnight fasting; assay type: organism-based
Homo sapiens [9] = test: Toxicity in of human with mild liver impairment at 180.5 mg, po administered as single dose over 2 hrs following overnight fasting; assay type: organism-based
Homo sapiens [10] = test: Tmax in plasma of human with mild liver impairment assessed as isavuconazole level at 180.5 mg, po administered as single dose over 2 hrs following overnight fasting by high-pressure liquid chromatography coupled with tandem mass spectrometry; assay type: ADME, organism-based
Homo sapiens [11] = test: Tmax in plasma of human with moderate liver impairment assessed as isavuconazole level at 180.5 mg, po administered as single dose over 2 hrs following overnight fasting by high-pressure liquid chromatography coupled with tandem mass spectrometry; assay type: ADME, organism-based
Homo sapiens [12] = test: Systemic clearance in healthy human plasma assessed as isavuconazole level at 180.5 mg, iv administered as single dose over 2 hrs following overnight fasting by high-pressure liquid chromatography coupled with tandem mass spectrometry; assay type: ADME, organism-based
Homo sapiens [13] = test: Terminal half life in human with moderate liver impairment assessed as isavuconazole level at 180.5 mg, po administered as single dose over 2 hrs following overnight fasting by high-pressure liquid chromatography coupled with tandem mass spectrometry; assay type: ADME, organism-based
Homo sapiens [14] = test: AUC (0 to t) in human with moderate liver impairment assessed as metabolite BAL8728 level at 180.5 mg, iv administered as single dose over 2 hrs following overnight fasting by high-pressure liquid chromatography coupled with tandem mass spectrometry; assay type: ADME, organism-based; parameters: dose 180.5 mg, time < 2 hr, route intravenous
Homo sapiens [15] = test: Oral clearance in plasma of human with moderate liver impairment assessed as isavuconazole level at 180.5 mg, po administered as single dose over 2 hrs following overnight fasting by high-pressure liquid chromatography coupled with tandem mass spectrometry; assay type: ADME, organism-based
Homo sapiens [16] = test: AUC (0 to infinity) in plasma of human with mild liver impairment assessed as isavuconazole level at 180.5 mg, po administered as single dose over 2 hrs following overnight fasting by high-pressure liquid chromatography coupled with tandem mass spectrometry; assay type: ADME, organism-based; parameters: dose 180.5 mg, route oral, time infinity
Homo sapiens [17] = test: Volume of distribution at steady state in of human with mild liver impairment assessed as isavuconazole level at 180.5 mg, iv administered as single dose over 2 hrs following overnight fasting by high-pressure liquid chromatography coupled with tandem mass spectrometry; assay type: ADME, organism-based
Homo sapiens [18] = test: Volume of distribution at steady state in of human with moderate liver impairment assessed as isavuconazole level at 180.5 mg, iv administered as single dose over 2 hrs following overnight fasting by high-pressure liquid chromatography coupled with tandem mass spectrometry; assay type: ADME, organism-based
Homo sapiens [19] = test: Volume of distribution at steady state in healthy human assessed as isavuconazole level at 180.5 mg, po administered as single dose over 2 hrs following overnight fasting by high-pressure liquid chromatography coupled with tandem mass spectrometry; assay type: ADME, organism-based
Homo sapiens [20] = test: Cmax in plasma of human with mild liver impairment assessed as isavuconazole level at 180.5 mg, iv administered as single dose over 2 hrs following overnight fasting by high-pressure liquid chromatography coupled with tandem mass spectrometry by HPLC-tandem mass spectrometry; assay type: ADME, organism-based; parameters: dose 180.5 mg, route intravenous
Homo sapiens [21] = test: Toxicity in of human with moderate liver impairment at 180.5 mg, po administered as single dose over 2 hrs following overnight fasting; assay type: organism-based
Homo sapiens [22] = test: Terminal half life in healthy human assessed as isavuconazole level at 180.5 mg, po administered as single dose over 2 hrs following overnight fasting by high-pressure liquid chromatography coupled with tandem mass spectrometry; assay type: ADME, organism-based
Homo sapiens [23] = test: AUC (0 to t) in human with mild liver impairment at 180.5 mg, iv administered as single dose over 2 hrs following overnight fasting by high-pressure liquid chromatography coupled with tandem mass spectrometry; assay type: ADME, organism-based; parameters: time < 2 hr, dose 180.5 mg, route intravenous
Homo sapiens [24] = test: Toxicity in healthy human at 180.5 mg, po administered as single dose over 2 hrs following overnight fasting; assay type: organism-based
Homo sapiens [25] = test: Cmax in healthy human plasma assessed as isavuconazole level at 180.5 mg, iv administered as single dose over 2 hrs following overnight fasting by high-pressure liquid chromatography coupled with tandem mass spectrometry by HPLC-tandem mass spectrometry; assay type: ADME, organism-based; parameters: dose 180.5 mg, route intravenous
Homo sapiens [26] = test: Oral clearance in healthy human plasma assessed as isavuconazole level at 180.5 mg, po administered as single dose over 2 hrs following overnight fasting by high-pressure liquid chromatography coupled with tandem mass spectrometry; assay type: ADME, organism-based
Homo sapiens [27] = test: Toxicity in healthy human at 180.5 mg, iv administered as single dose over 2 hrs following overnight fasting; assay type: organism-based
Homo sapiens [28] = test: Terminal half life in healthy human assessed as isavuconazole level at 180.5 mg, iv administered as single dose over 2 hrs following overnight fasting by high-pressure liquid chromatography coupled with tandem mass spectrometry; assay type: ADME, organism-based
Homo sapiens [29] = test: Cmax in plasma of human with mild liver impairment assessed as isavuconazole level at 180.5 mg, po administered as single dose over 2 hrs following overnight fasting by high-pressure liquid chromatography coupled with tandem mass spectrometry by HPLC-tandem mass spectrometry; assay type: ADME, organism-based; parameters: dose 180.5 mg, route oral
Homo sapiens [30] = test: Terminal half life in human with mild liver impairment assessed as isavuconazole level at 180.5 mg, po administered as single dose over 2 hrs following overnight fasting by high-pressure liquid chromatography coupled with tandem mass spectrometry; assay type: ADME, organism-based
Homo sapiens [31] = test: AUC (0 to t) in healthy human assessed as metabolite BAL8728 level at 180.5 mg, iv administered as single dose over 2 hrs following overnight fasting by high-pressure liquid chromatography coupled with tandem mass spectrometry; assay type: ADME, organism-based, Plasma; parameters: dose 180.5 mg, time < 2 hr, route intravenous
Homo sapiens [32] = test: Toxicity in of human with moderate liver impairment at 180.5 mg, iv administered as single dose over 2 hrs following overnight fasting; assay type: organism-based
Homo sapiens [33] = test: Cmax in plasma of human with moderate liver impairment assessed as isavuconazole level at 180.5 mg, iv administered as single dose over 2 hrs following overnight fasting by high-pressure liquid chromatography coupled with tandem mass spectrometry by HPLC-tandem mass spectrometry; assay type: ADME, organism-based; parameters: dose 180.5 mg, route intravenous
Homo sapiens [34] = test: Cmax in plasma of human with moderate liver impairment assessed as isavuconazole level at 180.5 mg, po administered as single dose over 2 hrs following overnight fasting by high-pressure liquid chromatography coupled with tandem mass spectrometry by HPLC-tandem mass spectrometry; assay type: ADME, organism-based; parameters: dose 180.5 mg, route oral
Homo sapiens [35] = test: Volume of distribution at steady state in healthy human assessed as isavuconazole level at 180.5 mg, iv administered as single dose over 2 hrs following overnight fasting by high-pressure liquid chromatography coupled with tandem mass spectrometry; assay type: ADME, organism-based
Homo sapiens [36] = test: Terminal half life in human with moderate liver impairment assessed as isavuconazole level at 180.5 mg, iv administered as single dose over 2 hrs following overnight fasting by high-pressure liquid chromatography coupled with tandem mass spectrometry; assay type: ADME, organism-based
Homo sapiens [37] = test: Volume of distribution at steady state in of human with mild liver impairment assessed as isavuconazole level at 180.5 mg, po administered as single dose over 2 hrs following overnight fasting by high-pressure liquid chromatography coupled with tandem mass spectrometry; assay type: ADME, organism-based
Homo sapiens [38] = test: AUC (0 to t) in healthy human at 180.5 mg, iv administered as single dose over 2 hrs following overnight fasting by high-pressure liquid chromatography coupled with tandem mass spectrometry; assay type: ADME, organism-based, Plasma; parameters: time < 2 hr, dose 180.5 mg, route intravenous
Homo sapiens [39] = test: AUC (0 to infinity) in plasma of human with moderate liver impairment assessed as isavuconazole level at 180.5 mg, po administered as single dose over 2 hrs following overnight fasting by high-pressure liquid chromatography coupled with tandem mass spectrometry; assay type: ADME, organism-based; parameters: dose 180.5 mg, route oral, time infinity
Homo sapiens [40] = test: Terminal half life in human with mild liver impairment assessed as isavuconazole level at 180.5 mg, iv administered as single dose over 2 hrs following overnight fasting by high-pressure liquid chromatography coupled with tandem mass spectrometry; assay type: ADME, organism-based
Homo sapiens [41] = test: AUC (0 to infinity) in healthy human plasma assessed as isavuconazole level at 180.5 mg, po administered as single dose over 2 hrs following overnight fasting by high-pressure liquid chromatography coupled with tandem mass spectrometry; assay type: ADME, organism-based; parameters: dose 180.5 mg, route oral, time infinity
Homo sapiens [42] = test: Oral clearance in plasma of human with mild liver impairment assessed as isavuconazole level at 180.5 mg, po administered as single dose over 2 hrs following overnight fasting by high-pressure liquid chromatography coupled with tandem mass spectrometry; assay type: ADME, organism-based
Homo sapiens [43] = test: Cmax in healthy human plasma assessed as isavuconazole level at 180.5 mg, po administered as single dose over 2 hrs following overnight fasting by high-pressure liquid chromatography coupled with tandem mass spectrometry by HPLC-tandem mass spectrometry; assay type: ADME, organism-based; parameters: dose 180.5 mg, route oral
Homo sapiens [44] = test: AUC (0 to infinity) in plasma of human with mild liver impairment assessed as isavuconazole level at 180.5 mg, iv administered as single dose over 2 hrs following overnight fasting by high-pressure liquid chromatography coupled with tandem mass spectrometry; assay type: ADME, organism-based; parameters: dose 180.5 mg, time infinity, route intravenous
Homo sapiens [45] = test: Systemic clearance in plasma of human with mild liver impairment assessed as isavuconazole level at 180.5 mg, iv administered as single dose over 2 hrs following overnight fasting by high-pressure liquid chromatography coupled with tandem mass spectrometry; assay type: ADME, organism-based

With `CNCC(=O)OCc1cccnc1N(C)C(=O)OC(C)[n+]1cnn(C[C@](O)(c2cc(F)ccc2F)[C@@H](C)c2nc(-c3ccc(C#N)cc3)cs2)c1.Cl.[Cl-]` (stereo not given in full) the Vdss (Homo sapiens [1]) was 598 L, the Tmax (Homo sapiens [2]) was 2.4 h and the AUC (Homo sapiens [3]) was 39 µg/h/mL. For the same molecule, the AUC (Homo sapiens [4]) was 0.433 µg/h/mL, the AUC (Homo sapiens [5]) was 0.685 µg/h/mL and the AUC (Homo sapiens [6]) was 101 µg/h/mL. For the same molecule, the CL (Homo sapiens [7]) was 1.43 L/h, the Activity (Homo sapiens [8]) was “Non-toxic” and the Activity (Homo sapiens [9]) was “Non-toxic”. It also gave a Tmax (Homo sapiens [10]) of 2.7 h, a Tmax (Homo sapiens [11]) of 2.6 h and a CL (Homo sapiens [12]) of 2.73 L/h. The “beta t1/2” value (Homo sapiens [13]) was 240 h, the AUC (Homo sapiens [14]) was 0.583 µg/h/mL and the CL (Homo sapiens [15]) was 1.82 L/h. It also gave an AUC (Homo sapiens [16]) of 98 µg/h/mL, a Vdss (Homo sapiens [17]) of 492 L and a Vdss (Homo sapiens [18]) of 471 L. The Vdss (Homo sapiens [19]) was 475 L, the Cmax (Homo sapiens [20]) was 980 ng/mL and the Activity (Homo sapiens [21]) was “Non-toxic”. The “beta t1/2” value (Homo sapiens [22]) was 148 h, the AUC (Homo sapiens [23]) was 0.375 µg/h/mL and the Activity (Homo sapiens [24]) was “Non-toxic”. The Cmax (Homo sapiens [25]) was 1090 ng/mL, the CL (Homo sapiens [26]) was 2.38 L/h and the Activity (Homo sapiens [27]) was “Non-toxic”. For the same molecule, the “beta t1/2” value (Homo sapiens [28]) was 123 h, the Cmax (Homo sapiens [29]) was 730 ng/mL and the “beta t1/2” value (Homo sapiens [30]) was 292 h. The AUC (Homo sapiens [31]) was 0.606 µg/h/mL, the Activity (Homo sapiens [32]) was “Non-toxic” and the Cmax (Homo sapiens [33]) was 840 ng/mL. For the same molecule, the Cmax (Homo sapiens [34]) was 470 ng/mL, the Vdss (Homo sapiens [35]) was 422 L and the “beta t1/2” value (Homo sapiens [36]) was 302 h. The Vdss (Homo sapiens [37]) was 485 L, the AUC (Homo sapiens [38]) was 0.195 µg/h/mL and the AUC (Homo sapiens [39]) was 62 µg/h/mL. For the same molecule, the “beta t1/2” value (Homo sapiens [40]) was 224 h, the AUC (Homo sapiens [41]) was 45 µg/h/mL and the CL (Homo sapiens [42]) was 1.26 L/h. For the same molecule, the Cmax (Homo sapiens [43]) was 840 ng/mL, the AUC (Homo sapiens [44]) was 72 µg/h/mL and the CL (Homo sapiens [45]) was 1.93 L/h.
